Data published in article PMC9154192 (PLoS Biology, 2022).
≈ marks a conversion by molar mass, not a printed value. Where “and” joins values, the source holds several entries; their conditions need not be identical. Identical values can stand only once. Like-named read-outs stand apart in the source and are kept apart here.

Experiments:
M. goodie = test: microbe, parasite or virus in culture; format: cell-based; conditions: Mycobacterium
M. tuberculosis H37Ra = test: microbe, parasite or virus in culture; format: cell-based, Mycobacterium tuberculosis; conditions: Mycobacterium tuberculosis, H37RA
M. szulgai = test: microbe, parasite or virus in culture; format: cell-based; conditions: Mycobacterium szulgai
M. bovis = test: microbe, parasite or virus in culture; format: cell-based; conditions: Mycobacterium tuberculosis variant bovis
M. abscessus = test: microbe, parasite or virus in culture; format: cell-based, Mycobacterium abscessus; conditions: Mycobacteroides abscessus
M. heraklionease = test: microbe, parasite or virus in culture; format: cell-based; conditions: Mycobacterium
Trichophyton rubrum = test: Broth dilution MIC (CLSI); format: cell-based
M. bolletii = test: microbe, parasite or virus in culture; format: cell-based, Mycobacterium bolletii; conditions: Mycobacteroides abscessus
M. intracellulare = test: microbe, parasite or virus in culture; format: cell-based; conditions: Mycobacterium intracellulare
in vitro = format: cell-based, murine; conditions: mouse
Procedure: A549 human pulmonary epithelial cells (KCLB 10185), human embryonic kidney (HEK) 293 cells (KCLB 21573), human THP-1 leukemia cells (KCLB 40202), human neuroblastoma SH-SY5Y cells (KCLB 22266), Murine Raw 264.7 macrophages (KCLB 40071), and L929 murine fibroblasts (KCLB 10001) were purchased from the KCLB (Seoul, Korea). Cytotoxicity testing was performed using the MTT assay and the WST-1 cell viability assay as previously described.

M. avium = test: microbe, parasite or virus in culture; format: cell-based; conditions: Mycobacterium avium
M. massiliense = test: microbe, parasite or virus in culture; format: cell-based, Mycobacterium massiliense; conditions: Mycobacteroides abscessus
M. tuberculosis H37Rv [1] = test: microbe, parasite or virus in culture; format: cell-based, Mycobacterium tuberculosis; conditions: for MIC: Mycobacterium tuberculosis, H37RV, read-out: MIC
M. phlei = test: microbe, parasite or virus in culture; format: cell-based, Mycobacterium phlei; conditions: Mycolicibacterium phlei
M. tuberculosis H37Rv [2] = format: cell-based, Mycobacterium tuberculosis; conditions: for RFU/200 μl (replicates1-3), single values / RFU/ml (×104) / RFU/200 μl (average): Fig 2A
M. smegmatis = test: microbe, parasite or virus in culture; format: cell-based, Mycobacterium smegmatis; conditions: Mycolicibacterium smegmatis
M. phocaicum = test: microbe, parasite or virus in culture; format: cell-based, Mycobacterium phocaicum; conditions: Mycolicibacterium phocaicum
M. xenopi = test: microbe, parasite or virus in culture; format: cell-based; conditions: Mycobacterium xenopi
M. neoaurum = test: microbe, parasite or virus in culture; format: cell-based, Mycobacterium neoaurum; conditions: Mycolicibacterium neoaurum
M. tuberculosis H37Rv [3] = format: in vivo, BALB/c mice; set-up: Efficacy in BALB/C mouse model of pulmonary tuberculosis, Average / Efficacy in BALB/C mouse model of pulmonary tuberculosis, values of mice 1-6: unit not given here; conditions: Fig 4C
intestinal microbiome = test: Gut microbiome, 16s rRNA gene-based metagenomics analysis of feces; format: in vivo, BALB/c mice; conditions: mouse, in vivo
Procedure: Six-week-old BALB/c female mice were used for this study (6 mice for each group). Each drug was administered orally at 30 mg/kg once daily for 7 days. Stool was collected, and 16 rRNA gene-based metagenomics analysis was performed. Corn oil was used as the vehicle. The drug-free group received corn oil only. This animal experiment was conducted with the approval of the IACUC of the Soonchunhyang University (approval number: SCH21-0011). Microbiome analysis of collected feces was carried out as previously described with some modifications. Total DNA was extracted from the stool using the QIAamp DNA stool mini kit (Qiagen, Germany) after mechanical disruption using lysing matrix B tubes (MP Biomedicals, USA). V4 region of 16S RNA gene was amplified from extracted DNA with the following primers: forward primer ([…]) and reverse primer ([…]). PCR was performed using the Kappa HiFi hot start kit (KAPA Biosystems, USA) for 16s gene amplification and library preparation. A dsDNA HS assay kit and Qubit 4 fluorimeter (Invitrogen, USA) were used for DNA quantification. After each step, quality was checked using Agilent High Sensitivity DNA Kit and Agilent Bioanalyzer 2100 (Agilent Technologies, USA). Clean-up was performed using AMPure XP beads (Beckman Coulter, UK). The metagenomic library was prepared using a Nextera XT DNA Library Prep Kit (Illumina, USA) and loaded into an iSeq-100 reagent cartridge (Illumina, USA) together with a PhiX Control library (Illumina, USA). A 300-bp paired-end sequencing was performed on an iSeq-100 platform (Illumina, USA). Sequencing data were analyzed using the EzBioCloud server (Chunlab, Korea).

SMILES: COC(=O)[C@@H]1CCC(=O)N1Cc1cc2ccc(OC)cc2c2cc(OC)c(OC)cc12 [PP1S, (S)-N-[(2,3,6-Trimethoxy-10-phenanthryl)methyl]-pyroglutamic acid methyl ester]
- MIC (M. goodie): > 100 µg/mL
- MIC (M. tuberculosis H37Ra): 1.6 µg/mL (≈ 3.78 µM)
- MIC (M. szulgai): > 100 µg/mL
- MIC (M. bovis): 1.6 µg/mL (≈ 3.78 µM)
- MIC (M. abscessus): > 100 µg/mL
- MIC (M. heraklionease): > 100 µg/mL
- MIC (Trichophyton rubrum; read-out: MIC): > 100 µg/mL
- MIC (M. bolletii): > 100 µg/mL
- MIC (M. intracellulare): > 100 µg/mL
- CC50 (in vitro; L929): > 500 µg/mL
- CC50 (in vitro; L929, MTT assay (Table S1)): > 100 µg/mL
- CC50 (in vitro; RAW, MTT assay (Table S1)): > 100 µg/mL
- CC50 (in vitro; Raw264.7): > 500 µg/mL
- MIC (M. avium): > 100 µg/mL
- MIC (M. massiliense): > 100 µg/mL
- in vitro antitubercular activities (S-form vs R-form) (M. tuberculosis H37Rv [1]): had in vitro antitubercular activities
- MIC (M. tuberculosis H37Rv [1]): 1.6 µg/mL (≈ 3.78 µM)
- SI (CC50/MIC) (M. tuberculosis H37Rv [1]; ratio of CC50 for L929 fibroblasts to MIC for strain H37Rv): >62.5
- MIC (M. phlei): > 100 µg/mL
- RFU/200 μl (replicates1-3), single values (M. tuberculosis H37Rv [2]; drug conc. 0.39): 59110 RFU/200 μl and 59240 RFU/200 μl and 59440 RFU/200 μl and 58960 RFU/200 μl and 59940 RFU/200 μl and 59150 RFU/200 μl and 59270 RFU/200 μl and 59190 RFU/200 μl and 59120 RFU/200 μl
- RFU/ml (×104) (M. tuberculosis H37Rv [2]; drug conc. 0.39): 29.6 RFU/ml (×104)
- RFU/200 μl (average) (M. tuberculosis H37Rv [2]; drug conc. 0.39, average of each replicate set): 59447 RFU/200 μl and 59203 RFU/200 μl and 59157 RFU/200 μl
- RFU/200 μl (replicates1-3), single values (M. tuberculosis H37Rv [2]; drug conc. 0.78): 53920 RFU/200 μl and 54090 RFU/200 μl and 54550 RFU/200 μl and 54830 RFU/200 μl and 54570 RFU/200 μl and 54130 RFU/200 μl and 54320 RFU/200 μl and 54040 RFU/200 μl and 53950 RFU/200 μl
- RFU/ml (×104) (M. tuberculosis H37Rv [2]; drug conc. 0.78): 27.1 RFU/ml (×104)
- RFU/200 μl (average) (M. tuberculosis H37Rv [2]; drug conc. 0.78, average of each replicate set): 54650 RFU/200 μl and 54163 RFU/200 μl and 53987 RFU/200 μl
- RFU/200 μl (replicates1-3), single values (M. tuberculosis H37Rv [2]; drug conc. 1.56): 29900 RFU/200 μl and 30040 RFU/200 μl and 30750 RFU/200 μl and 30860 RFU/200 μl and 30640 RFU/200 μl and 28310 RFU/200 μl and 28580 RFU/200 μl and 28120 RFU/200 μl and 29920 RFU/200 μl
- RFU/ml (×104) (M. tuberculosis H37Rv [2]; drug conc. 1.56): 14.8 RFU/ml (×104)
- RFU/200 μl (average) (M. tuberculosis H37Rv [2]; drug conc. 1.56, average of each replicate set): 30750 RFU/200 μl and 28337 RFU/200 μl and 29953 RFU/200 μl
- concentration with significant antitubercular effect (M. tuberculosis H37Rv [2]; fluorescence-based assay): 1.56 µg/mL
- MIC (M. smegmatis): > 100 µg/mL
- MIC (M. phocaicum): > 100 µg/mL
- MIC (M. xenopi): > 100 µg/mL
- MIC (M. neoaurum): > 100 µg/mL
- Efficacy in BALB/C mouse model of pulmonary tuberculosis, Average (M. tuberculosis H37Rv [3]; group dose 30, 6 mice): 2683333
- Efficacy in BALB/C mouse model of pulmonary tuberculosis, Average (M. tuberculosis H37Rv [3]; group dose 100, 6 mice): 1028333

SMILES: COC(=O)[C@@H]1CCC(=O)N1Cc1cc2ccc(OCc3ccccc3)cc2c2cc(OC)c(OC)cc12 [PP3S, Methyl (S)-1-{[3-(Benzyloxy)-6,7-dimethoxy-9-phenanthryl]methyl}-5-oxopyrrolidine-2-carboxylate]
- MIC (M. goodie): > 100 µg/mL
- MIC (M. tuberculosis H37Ra): 1.6 µg/mL (≈ 3.2 µM)
- MIC (M. szulgai): > 100 µg/mL
- MIC (M. bovis): 3.12 µg/mL (≈ 6.25 µM)
- MIC (M. abscessus): > 100 µg/mL
- MIC (M. heraklionease): > 100 µg/mL
- MIC (Trichophyton rubrum; read-out: MIC): > 100 µg/mL
- MIC (M. bolletii): > 100 µg/mL
- MIC (M. intracellulare): > 100 µg/mL
- CC50 (in vitro; L929): > 500 µg/mL
- CC50 (in vitro; Raw264.7): > 500 µg/mL
- MIC (M. avium): > 100 µg/mL
- MIC (M. massiliense): > 100 µg/mL
- in vitro antitubercular activities (S-form vs R-form) (M. tuberculosis H37Rv [1]): had in vitro antitubercular activities
- MIC (M. tuberculosis H37Rv [1]): 1.6 µg/mL (≈ 3.2 µM)
- MIC (M. phlei): > 100 µg/mL
- MIC (M. smegmatis): > 100 µg/mL
- MIC (M. phocaicum): > 100 µg/mL
- MIC (M. xenopi): > 100 µg/mL
- MIC (M. neoaurum): > 100 µg/mL

SMILES: CO[C@H]1/C=C/O[C@@]2(C)Oc3c(C)c(O)c4c(O)c(c(/C=N/N5CCN(C)CC5)c(O)c4c3C2=O)NC(=O)/C(C)=C\C=C\[C@H](C)[C@H](O)[C@@H](C)[C@@H](O)[C@@H](C)[C@H](OC(C)=O)[C@@H]1C [RIF, rifampicin, reference compound]
- MIC (M. goodie): 100 µg/mL (≈ 122 µM)
- MIC (M. szulgai): < 0.1 µg/mL
- MIC (M. bovis): 0.1 µg/mL (≈ 0.122 µM)
- MIC (M. abscessus): > 100 µg/mL
- beta set-significance analysis, pair-wise comparison of gut microbiome (intestinal microbiome): significant
- difference in phylum or class level taxa compared to drug-free group (intestinal microbiome): significant differences
- phylogenetic diversity compared to drug-free control group (intestinal microbiome): significantly decreased
- MIC (M. heraklionease): 0.2 µg/mL (≈ 0.243 µM)
- MIC (Trichophyton rubrum): > 100 µg/mL
- MIC (M. bolletii): > 100 µg/mL
- MIC (M. intracellulare): < 0.1 µg/mL
- CC50 (in vitro; L929): > 500 µg/mL
- CC50 (in vitro; Raw264.7): > 500 µg/mL
- MIC (M. avium): 1.6 µg/mL (≈ 1.94 µM)
- MIC (M. massiliense): 0.2 µg/mL (≈ 0.243 µM)
- MIC (M. tuberculosis H37Rv [1]): 0.1 µg/mL (≈ 0.122 µM)
- MIC (M. phlei): 25 µg/mL (≈ 30.4 µM)
- MIC (M. smegmatis): 25 µg/mL (≈ 30.4 µM)
- MIC (M. phocaicum): 25 µg/mL (≈ 30.4 µM)
- MIC (M. xenopi): 0.2 µg/mL (≈ 0.243 µM)
- MIC (M. neoaurum): 0.2 µg/mL (≈ 0.243 µM)

SMILES: [H]/N=C(/N)N[C@H]1[C@H](O)[C@@H](O)[C@H](O[C@@H]2O[C@@H](C)[C@](O)(C=O)[C@H]2O[C@@H]2O[C@@H](CO)[C@H](O)[C@@H](O)[C@@H]2NC)[C@@H](N/C(N)=N\[H])[C@@H]1O [STR, streptomycin]
- MIC (M. goodie): 0.2 µg/mL (≈ 0.344 µM)
- MIC (M. szulgai): 0.2 µg/mL (≈ 0.344 µM)
- MIC (M. bovis): 0.4 µg/mL (≈ 0.688 µM)
- MIC (M. abscessus): 25 µg/mL (≈ 43 µM)
- MIC (M. heraklionease): 50 µg/mL (≈ 86 µM)
- MIC (Trichophyton rubrum; read-out: MIC): > 100 µg/mL
- MIC (M. bolletii): 25 µg/mL (≈ 43 µM)
- MIC (M. intracellulare): 0.8 µg/mL (≈ 1.38 µM)
- MIC (M. avium): 3.1 µg/mL (≈ 5.33 µM)
- MIC (M. massiliense): 0.8 µg/mL (≈ 1.38 µM)
- MIC (M. tuberculosis H37Rv [1]): 0.4 µg/mL (≈ 0.688 µM)
- MIC (M. phlei): 0.2 µg/mL (≈ 0.344 µM)
- MIC (M. smegmatis): 0.2 µg/mL (≈ 0.344 µM)
- MIC (M. phocaicum): 6.3 µg/mL (≈ 10.8 µM)
- MIC (M. xenopi): 0.2 µg/mL (≈ 0.344 µM)
- MIC (M. neoaurum): 0.8 µg/mL (≈ 1.38 µM)
